Patent US12691094B2, “Use of Crassifolin A in preparation of drug for promoting mitophagy and treating neurodegenerative diseases” (JINAN UNIVERSITY, priority 2021, dated 2026)

Key:
Hela-mt-Keima cells [1] = test: Detection of mitophagy in Hela-mt-Keima cells by confocal microscopy; assay type: cell-based; settings: 10 μM JGX-1, 8 h
Description: The Keima fluorescent protein derived from anthozoan has a pH value-dependent bimodal excitation spectrum, that is, Keima at neutral pH and acidic pH can be excited to emit green fluorescence and red fluorescence under the excitation of light with a wavelength of 440 nm and 586 nm, respectively. Since mitochondria that undergo autophagy eventually enter acidic lysosomes, Keima with the mitochondrial localization (mitochondrial Keima, mt-Keima) can indicate the mitochondria that enter the lysosomes via the autophagic pathway. The specific procedure of this experiment is as follows:
Inoculation of Hela-mt-Keima cells into 12 laser confocal cell culture dishes at a density of 1×10^4, and then adding 1 mL of DMEM medium containing 10% (v/v) FBS; after 5 h, changing the solution, and dividing into a solvent control group (DMSO), a positive drug control group (10 μM FCCP), an experimental group 1 (10 μM JGX-1+10 μM FCCP) and an experimental group 2 (10 μM JGX-1), with 3 replicates in each group; incubating cells in a 5% (v/v) CO2 cell culture incubator at 37° C.; after 8 h, observing the changes in the excitation fluorescence signals of the 458 nm channel (indicating Keima at neutral pH) and the 561 nm channel (indicating Keima at acidic pH) under a laser confocal microscope, randomly selecting 3 fields of view to take photos, and then statistically plotting.

pTAU (202) = test: Western blot of phosphorylated Tau in hSY5Y cells; assay type: cell-based; settings: JGX-1 10 μmol/L, 24 h
Description: • a. […]

Tau model mice = test: Morris water maze test of learning memory; assay type: in vivo; settings: 10-month-old Tau model mice, oral 20 mg/kg for 3 consecutive months
LC3B = test: Western blot of LC3B in hSY5Y cells; assay type: cell-based; settings: JGX-1 10 μmol/L, 24 h
Description: • a. […]

Hela-mt-Keima cells [2] = test: Flow cytometry of Hela-mt-Keima cells for screening a mitophagy drug; assay type: cell-based; settings: 10 μM JGX-1+10 μM FCCP (FIG. 1 legend: JGX-1 10 μM)
Description: The Keima fluorescent protein derived from anthozoan has a pH value-dependent bimodal excitation spectrum, that is, Keima can be excited to emit green fluorescence at neutral pH and acidic pH and red fluorescence under the excitation of light with a wavelength of 440 nm and 586 nm, respectively. Since mitochondria that undergo autophagy eventually enter acidic lysosomes, Keima with the mitochondrial localization (mitocondrial Keima, mt-Keima) can indicate the mitochondria that enter the lysosomes via the autophagic pathway. The specific procedure of this experiment is as follow:
Inoculation of Hela-mt-Keima cells into a 24-well plate at a density of 5×10^4, and then adding 1 mL of DMEM medium containing 10% (v/v) fetal bovine serum (FBS) to them to culture for 24 h; after 24 h, respectively adding 0.1% (v/v) DMSO (dimethyl sulfoxide), with DMSO (10 μM) as a solvent control group (DMSO), 10 μM of mitochondrial uncoupling agent (FCCP) (sigma) as a positive drug control group, and 10 μM JGX-1+10 μM FCCP as an experimental group, each group having 3 replicates; collecting cells on the third day by centrifugation at 1000×g for 3 min, resuspending in 0.5 mL of PBS buffer, sieving at 40 μm on the machine, collecting 5×10^4 cells by flow cytometry, recording the collection time, 405 nm/Qdot605-A, 561 nm/PE-Texas Red-A, and calculating MI=561/405+561.

## COC(=O)[C@]1(C)CCCC2=C1CC[C@@H](C)[C@]2(C)CCC1=CC(=O)OC1 [JGX-1, Crassifolin A]
Hela-mt-Keima cells [1]
  mitophagy (confocal live cell imaging): enhance mitophagy
pTAU (202)
  expression of phosphorylated Tau: inhibited
Tau model mice
  dementia symptoms in the model mice: alleviated
  learning memory of AD model mice: improved effect
LC3B
  expression of autophagic LC3B: enhanced
Hela-mt-Keima cells [2]
  mitophagy (flow cytometry, MI=561/405+561): enhance mitophagy
